Test results as given in patent publication US12564609B2, “Hematopoietic stem cell engraftment with a combination of agents” (The Board of Trustees of the Leland Stanford Junior …, priority 2020, dated 2026).

Tested on: LT-HSC, ST-HSC, MPP
Test: Ki67 expression and HSPC depletion after AZA (dose titration)
Format: in vivo, C57BL/6 mice
Experimental: A. Schematic of treatment protocol. […] 24 h after last AZA injection BM was analyzed for HSC-depletion and Ki67 intracellular protein expression. B. […] C. Mean fluorescence intensity (MFI) of Ki67 intracellular protein expression in LT-HSC, ST-HSC, MPP2, MPP3/4 and myeloid progenitors (MP). Data were pooled from 2 independent experiments and represent mean±SD (n=7). Statistics were calculated Mann-Whitney test (*P<0.05; **P<0.01; ***P<0.001). D. Schematic of in vitro culture protocol. Mouse Lin^−Sca1+c-Kit^+CD48^− or human Lin^−CD34^+CD38^− were FACS-sorted and plated in 96-well flat bottom plate, coated with fibronectin and containing 100 μl of HSC media/well, supplemented with 10 ng/ml SCF and 100 ng/ml TPO. Different concentrations of AZA (0.1, 0.5 and 1 μg/ml) were added on two consecutive days (at baseline and 24 h after cell culturing) and cell counting, and cell imaging was performed every 6 h for total of 48 h on ImagExpress Pico automated cell counting system. After 48 h % live/dead cells was assessed by using EarlyTox Live/Dead Assay Kit. E. Proliferation curves of FACS-sorted mouse Lin^−Sca1^+c-Kit^+CD48^− in the presence of indicated concentrations of AZA (left) and cell viability as assessed by % of Calcein AM positive cells after 48 h of cell culture (right). Data represent mean±SD from 3 independent experiments. Statistics were calculated with Mann-Whitney test (*P<0.05; **P<0.01; ***P<0.001). F. Proliferation curves of FACS-sorted human Lin^−CD34^+CD38^− cells in the presence of indicated concentrations of AZA (left) and cell viability as assessed by % of Calcein AM positive cells after 48 h of cell culture (right). Data represent mean±SD from 2 independent experiments. Statistics were calculated with Mann-Whitney test (**P<0.01; ***P<0.001).
Analysis was performed 24 h after last AZA administration. Gated from lineage negative (Lin^−) live cells. Lin^−Sca1^+c-Kit^++ cells (LSK), long-term hematopoietic stem cells (LT-HSC). […] Data were pooled from 2 independent experiments and represent mean±SD (n=7). Statistics were calculated Mann-Whitney test (**P<0.01; ***P<0.001).
In vivo administration of therapeutic agents and cytokines. Anti-mouse CD117 mAbs, clone ACK2 (BioXcell) and 2B8 (BioXcell), were injected retroorbital as a single dose of 500 μg following intraperitoneal administration of Diphenhydramine (Benadryl). Anti CD4 (clone GK1.5, BioXcell) and anti-CD8 (clone YTS169.4, BioXcell) were administered intraperitoneally at a dose of 100 μg in 100 μl phosphate-buffered saline (PBS). 5-Azacytidine (AZA) ([…] Technologies), was reconstituted in PBS to a concentration of 5 mg/ml and kept at −20° for up to 1 month. Before each injection, AZA was thawed for 10-15 min at room temperature (RT), resuspended in PBS and administered intraperitoneally in 100 μl. […]

Nc1ncn([C@@H]2O[C@H](CO)[C@@H](O)[C@H]2O)c(=O)n1 [AZA, 5-Azacytidine]
level of HSPC (LSK) and LT-HSC after depletion (AZA 1.25 mg/kg/d for 3 days, 24 h after last dose): −25 % of baseline
normalization of Ki67 in HSC and MPP (AZA 5 mg/kg/d for 5 days): ≤ 10 days
Ki67 in HSC and MPP (AZA 5 mg/kg/d for 5 days, day 6): significant increase of Ki67
Ki67 protein expression in HSC, MPP and MP compartments (AZA 1.25, 2.5 and 5 mg/kg/d for 3 days (all three dose regimens)): significant increase in Ki67 protein expression
